Data published in patent US20050250113A1, “Mammalian magnesium/manganese sensing G protein coupled receptor” (The Regents of the University of California, priority 2004, published 2005).

Columns and labels:
R5.24 = target: T1, R5.24 (Homo sapiens, UniProt Q5T6X5); assay: Activity assay for R5.24 receptor: stimulus-evoked changes in intracellular calcium in cells expressing R5.24; assay type: cell-based; conditions: FIG. 1 middle panels, calcium signal
T1 construct: expressed in transfected cells; host or cells: human embryonic kidney (HEK) cells containing Gα16-Gαz and/or Gα15 promiscuous G proteins
T1 sequence (Q5T6X5 19-926): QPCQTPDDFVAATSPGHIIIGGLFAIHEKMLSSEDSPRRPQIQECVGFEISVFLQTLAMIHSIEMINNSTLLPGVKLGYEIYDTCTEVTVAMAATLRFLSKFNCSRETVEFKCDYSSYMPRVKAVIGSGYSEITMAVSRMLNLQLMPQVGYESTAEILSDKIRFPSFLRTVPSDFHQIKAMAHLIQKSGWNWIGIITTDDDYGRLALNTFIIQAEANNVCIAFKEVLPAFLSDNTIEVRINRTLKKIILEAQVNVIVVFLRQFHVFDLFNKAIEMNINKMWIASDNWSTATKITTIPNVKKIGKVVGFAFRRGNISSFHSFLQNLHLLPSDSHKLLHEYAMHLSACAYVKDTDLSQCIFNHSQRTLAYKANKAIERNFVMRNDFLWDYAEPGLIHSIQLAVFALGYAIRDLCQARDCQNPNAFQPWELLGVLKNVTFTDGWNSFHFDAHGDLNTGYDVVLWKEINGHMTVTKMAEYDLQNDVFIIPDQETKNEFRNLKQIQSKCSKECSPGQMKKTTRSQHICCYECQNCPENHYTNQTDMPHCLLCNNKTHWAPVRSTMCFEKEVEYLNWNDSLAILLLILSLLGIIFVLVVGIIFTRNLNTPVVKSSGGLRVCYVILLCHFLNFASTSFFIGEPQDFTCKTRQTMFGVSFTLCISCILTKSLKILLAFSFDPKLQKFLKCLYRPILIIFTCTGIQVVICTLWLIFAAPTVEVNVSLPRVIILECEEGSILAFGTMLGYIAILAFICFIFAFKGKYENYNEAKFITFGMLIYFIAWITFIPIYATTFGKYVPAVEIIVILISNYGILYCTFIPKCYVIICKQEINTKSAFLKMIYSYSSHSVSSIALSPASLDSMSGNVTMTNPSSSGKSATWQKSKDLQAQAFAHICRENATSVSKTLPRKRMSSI
Description: (§1) Candidate receptors are expressed in human embryonic kidney (HEK) cells containing, e.g., the Gα16-Gαz and/or Gα15 promiscuous G proteins (Offermanns et al., J. Biol. Chem. 270:15175-15180 (1995); Mody et al., Mol. Pharmacol. 57:13-23 (2000)), and assayed for stimulus-evoked changes in intracellular calcium. In this system, receptor activation leads to activation of phospholipase Cβ (PLC-β and release of calcium from internal stores, which can be monitored at the single-cell level using calcium-indicator dyes (Chandrashekar et al., Cell 100:703-711 (2000); Nelson et al., Cell 106:381-390 (2001); Tsien et al., Cell Calcium 6:145-157 (1985)).

[1] = system: cells without the receptor; assay: Activity assay control: cells without the receptor stimulated with magnesium or manganese; assay type: cell-based, human; conditions: FIG. 1 right panels
Description: as §1

[Mg+2] [magnesium]
response of cells expressing R5.24 to stimulation (R5.24): respond
response of cells without the receptor to stimulation [1]: do not respond

[Mn+2] [manganese]
response of cells expressing R5.24 to stimulation (R5.24): respond
response of cells without the receptor to stimulation [1]: do not respond
